{
  "source": "patent US20260258054A1",
  "about": "“SMALL MOLECULE FOR TREATMENT OF CANCER OF THE APPENDIX” (The Regents of the University of California, priority 2022, published 2026)",
  "key": {"LS174T GNAS^R201H cells": {"test_system": "LS174T GNAS^R201H cells", "assay": "cAMP levels, LS174T cells overexpressing GNAS^R201H", "assay_type": "cell-based, human", "conditions": "forskolin 0-2.5 μM, 15 min; doxycycline induced", "description": "(§1) FIGS. 4A-4C: GNAS signals through the CAMP-PKA axis. (FIG. 4A), KM12 GNAS^R201H and GNAS^352delG cells were treated with forskolin (0-250 μM) for 15 min. Following the treatment, cells were lysed, and cAMP levels were measured as described in the methods. (FIG. 4B), LS174T GNAS^R201H cells were treated with and without doxycycline, and cAMP levels measured after induction with forskolin (0-2.5 μM) for 15 min. (FIG. 4C), KM12 GNAS^R201H and GNAS^352delG organoids were grown in 3D-matrigel domes and treated with the PKA inhibitor H-89 (60 μM) for 10 days."}, "MEK regulated genes": {"test_system": "MEK regulated genes", "assay": "RNAseq analysis of post-treatment samples from trial NCT03108131 in appendiceal cancer", "assay_type": "in vivo", "conditions": "cobimetinib with atezolizumab, three post-treatment samples"}, "[1]": {"test_system": "KM12 GNAS^R201H organoids", "assay": "3D organoid growth, KM12 GNAS^R201H organoids", "assay_type": "cell-based, human", "conditions": "H-89 60 μM, 10 days, vs. DMSO control, p=0.004", "description": "as §1\nFIGS. 5A-5F: β-catenin is a downstream mediator of mutant GNAS signaling. (FIG. 5A), Top 10 hallmark genesets from the KM12 GNAS^KO-pool and LS174T GNAS overexpression datasets were selected and overlapping genesets were plotted. […] (FIG. 5D), Quantification of IHC tumors showing % of cells staining positive of β-catenin. (FIG. 5E), Quantification of the cytoplasmic and nuclear distribution of β-catenin based on IHC staining. […]\n(§2) KM12 and LS174T cells were suspended with Matrigel (BD) at 100 cells/μL and plated as 5 μL droplets onto 96-well multi-well culture plates. […] The plates were placed in the cell imaging multi-mode plate reader Cytation™ 5 (Biotek, Winooski, VT) at 37° C. in an atmosphere supplemented with 5% CO2. […] The numbers and total area of organoids were calculated."}, "[2]": {"test_system": "KM12 GNAS^352delG organoids", "assay": "3D organoid growth, KM12 GNAS knockout (GNAS^352delG) organoids", "assay_type": "cell-based, human", "conditions": "supplementation of organoid cultures with conditioned medium", "description": "as §1\nFIGS. 5A-5F: β-catenin is a downstream mediator of mutant GNAS signaling. (FIG. 5A), Top 10 hallmark genesets from the KM12 GNAS^KO-pool and LS174T GNAS overexpression datasets were selected and overlapping genesets were plotted. (FIG. 5B), Ratio of pT41/S45 phosphoβ-catenin/β-catenin based on the RPPA analysis results. (FIG. 5C), Immunohistochemistry (IHC) staining of β-catenin in LS174T dox (−) and dox (+) tissues from intraperitoneal mouse tumors. (FIG. 5D), Quantification of IHC tumors showing % of cells staining positive of β-catenin. (FIG. 5E), Quantification of the cytoplasmic and nuclear distribution of β-catenin based on IHC staining. (FIG. 5F), Effect of LF3 (β-catenin inhibitor) on the growth of KM12 (GNAS^R201H and GNAS^352delG) organoids. DMSO (0.2%) was used as control treatment and organoids were cultured for 10 days.\nFIGS. 9A-9B: Wnt stimulation rescued growth of GNAS knockout organoids. (FIG. 9A), 3D growth of KM12 GNAS knockout organoids after supplementation with Wnt3a or R-spondin conditioned medium. (FIG. 9B), Quantification of growth by measuring total colony area (%).\nas §2, with “plates. The plates were incubated at 37° C. for 15 min.” for “plates.”"}, "[3]": {"test_system": "SNU-175 (GNAS^R201C CRC cell line)", "assay": "cAMP-Glo assay, SNU-175 cells", "assay_type": "cell-based, human", "description": "(§3) A study was conducted to examine the effect of compound GE3 as a Gαs Inhibitor. Cells were treated with compound GE3 at high (1-5 mM) and low (0-0.5 mM) doses for 20 hours. cAMP levels were measured using the CAMP-Glo™ Assay (Promega). An isogenic paired cell line was created by using CRISPR-Cas9 to knockout (KO) GNAS from the SNU-175 cell line; this model system has been previously described (Oncogene. 2022 August; 41(35):4159-4168).\n(§4) The same experimental system was used as above to test lower doses of GE3."}, "[4]": {"test_system": "GNAS KO isogenic paired cell line of SNU-175", "assay": "cAMP-Glo assay, GNAS KO SNU-175 cells", "assay_type": "cell-based, human", "conditions": "mM doses (1-5 mM), 20 hours", "description": "as §3, §4"}, "GNAS KO SNU-175": {"test_system": "GNAS KO SNU-175", "assay": "Incucyte viability (confluence), GNAS KO SNU-175 cells", "assay_type": "cell-based, human", "description": "(§5) Viability was measured over time but determining cell confluence in experimental well using Incucyte Live-Cell Analysis system (Sartorius). JVS-324 was added in increasing concentrations and cell growth monitored for 72 hours. Confluency evaluation was normalized time point zero. An isogenic paired cell line was created by using CRISPR-Cas9 to knockout (KO) GNAS from the SNU-175 cell line; this model system has been previously described (Oncogene. 2022 August; 41 (35):4159-4168).\n(§6) Viability was measured over time but determining cell confluence in experimental well using Incucyte Live-Cell Analysis system (Sartorius); two experiments performed. […] (FIG. 26)."}, "[5]": {"test_system": "SNU-175 cells (GNAS^R201C)", "assay": "Incucyte viability (confluence), SNU-175 cells", "assay_type": "cell-based, human", "description": "as §5, §6"}},
  "note": "“Also recorded” adds a separate entry of the source.",
  "data": [
    {"molecule": "C=C[C@@]1(C)CC(=O)[C@]2(O)[C@@]3(C)[C@@H](O)CCC(C)(C)[C@@H]3[C@H](O)[C@H](OC(C)=O)[C@@]2(C)O1", "note": "[forskolin]", "values": [
      {"measurement": "effect of forskolin on basal levels of cAMP", "setting": "LS174T GNAS^R201H cells", "result": "no effect"}
    ]},
    {"molecule": "O=C(c1ccc(F)c(F)c1Nc1ccc(I)cc1F)N1CC(O)([C@@H]2CCCCN2)C1", "note": "[cobimetinib]", "values": [
      {"measurement": "expression of MEK regulated genes", "setting": "MEK regulated genes", "result": "not down regulated"}
    ]},
    {"molecule": "O=S(=O)(NCCNC/C=C/c1ccc(Br)cc1)c1cccc2cnccc12", "note": "[Compound H-89]", "values": [
      {"measurement": "reduced the growth of KM12 organoids", "setting": "[1]", "result": 79, "unit": "%"}
    ]},
    {"molecule": "Wnt3a", "values": [
      {"measurement": "rescue of organoid growth of GNAS-knockout cells", "setting": "[2]", "result": "rescued organoid growth"},
      {"measurement": "rescue of organoid growth of GNAS-knockout cells", "setting": "[2]; listed as WNT3A", "result": "can be rescued"},
      {"measurement": "rescue of organoid growth of GNAS-knockout cells", "setting": "[2]; listed as Wnt3A", "result": "rescue GNAS knockout"}
    ]},
    {"molecule": "CCC(CC)COC(=O)[C@H](C)NP(=O)(OC[C@H]1O[C@@H](n2cnc3c(=O)[nH]c(N)nc32)[C@@H]2O[C@@H]21)Oc1ccccc1", "note": "(stereo partly drawn) [GE3]", "values": [
      {"measurement": "potency relative to JVS-324 (cAMP)", "setting": "[3]", "result": "significantly more potent"},
      {"measurement": "dose by which cAMP level was comparable to the level in the KO cells", "setting": "[3]; 20 hours", "result": 0.01, "unit": "mM"},
      {"measurement": "cAMP levels", "setting": "[3]; lower doses (0-0.5 mM), 20 hours", "result": "dose-dependent fashion; also recorded: inhibits cAMP production"},
      {"measurement": "cAMP levels", "setting": "[3]; mM doses (1-5 mM), 20 hours", "result": "significantly reduced CAMP; also recorded: inhibits cAMP production"},
      {"measurement": "cAMP levels", "setting": "[4]", "result": "significantly reduced CAMP"},
      {"measurement": "cell growth", "setting": "GNAS KO SNU-175; GE3 at mM doses", "result": "significantly reduced growth"},
      {"measurement": "cell growth", "setting": "GNAS KO SNU-175; GE3 by 1 mM", "result": "essentially no growth"},
      {"measurement": "dose by which growth was comparable to the level in the KO cells", "setting": "[5]", "result": 0.01, "unit": "mM"},
      {"measurement": "cell growth / viability", "setting": "[5]; GE3, lower doses", "result": "dose-dependent fashion; also recorded: decreased viability"},
      {"measurement": "cell growth", "setting": "[5]; GE3 at mM doses", "result": "significantly reduced growth"},
      {"measurement": "cell growth", "setting": "[5]; GE3 by 1 mM", "result": "essentially no growth"},
      {"measurement": "IC50", "setting": "[5]; Homo sapiens, read-out: IC50 in viability assay", "result": 105, "unit": "µM"}
    ]}
  ]
}
